Assay results taken from patent US20260159536A1, “AKR1C3-ACTIVATED DNA ALKYLATING AGENT, AND MEDICAL APPLICATION THEREOF” (ASCENTAWITS PHARMACEUTICALS, LTD., priority 2021, published 2026).
Like-named read-outs stand apart in the source and are kept apart here.

Assays:
[1] = Chiral stability under long-term and accelerated storage conditions; assay type: physicochemical
Method: Isomer stability under long-term and accelerated conditions was studied.
Compound A and isomers A-P1 and A-P2 were investigated for traits and isomeric stability at −20±5° C., 5° C.±3° C., 25° C.±2° C. (60%±5% RH) and 40° C.±2° C.

in vitro = conditions: for metabolite AST-2660 detection: from Compound A
Method: (1) Compound A for test, progesterone positive control, and 100 mM stock solutions of AST-3021 inhibitor were prepared and stored in the freezer (−10° C. to −30° C.).
1) Negative control group: at different time points (0 and 60 min), 30 μL/well of hepatocyte cytosol suspension containing 7.5 μM of sample for test was distributed in a 96-well plate. Three replicate wells were prepared in parallel.
2) Positive control group: at different time points (0, 5, 15, 30, 45 and 60 min), 30 μL/well of hepatocyte cytosol suspension containing 7.5 μM of the positive control was distributed in a 96-well plate. Three replicate wells were prepared in parallel.
3) Normal reaction group: at different time points (0, 5, 15, 30, 45 and 60 min), 30 μL/well of hepatocyte cytosol suspension containing 7.5 μM of sample for test was distributed in a 96-well plate. Three replicate wells were prepared in parallel.
4) Inhibition reaction group: at different time points (0, 5, 15, 30, 45 and 60 min), 30 μL/well of hepatocyte cytosol suspension containing […] of sample for test and 4.5 μM of the inhibitor was distributed in a 96-well plate. Three replicate wells were prepared in parallel.
6) 0 min samples: after 150 μL/well of acetonitrile containing the internal standard was added, then 15 μL/well of pre-heated NADPH working solution was added to the samples of normal reaction group, inhibition reaction group and positive control group, and 15 μL/well of pre-heated potassium phosphate buffer was added to the samples of negative control group.
7) Other samples (5, 15, 30, 45 and 60 min): for normal reaction group, inhibition reaction group and positive control group, 15 μL/well of pre-heated NADPH working solution was added to start the reaction; for negative control group, 15 μL/well of pre-heated potassium phosphate buffer was added. The reaction plates were then continued to incubate in a 37° C. water bath and the reactions were stopped by the addition of 150 μL/well of stop solution at the corresponding time points (5, 15, 30, 45 and 60 min).
The concentration of analyte in each sample was expressed as a peak area ratio (peak area analyte/peak areainternal standard), then the peak area ratio at 0 min was used as a reference to calculate the % Remaining at each time point of the incubation, and the ln logarithmic value of the % Remaining was linearly fitted to the incubation time and the half-life was calculated according to the following formula.
In the absence of AST-3021, 5 μM of progesterone was co-incubated with 2 mM of NADPH and 1 mg/mL of hepatocyte cytosol for 0-60 min as a positive control.

[2] = system: HuPrime model GA6201 human gastric cancer; conditions: for Tumor volume: 60 mg/kg i.p.
Method: The test was divided into groups of the test drug Isocyclophosphamide 60 mg/kg group, the test drug AST-3424 5 mg/kg group, the test drug A compound 2.5 mg/kg and 5 mg/kg groups, and normal saline (pH 7.0-7.6) vehicle control group, a total of 5 groups, with 5 mice per group.
In the above dosing regimen, Isocyclophosphamide was designed based on the best dosing regimen with maximum safe dosage as recited in the document (Jessica D. Sun, Qian Liu, Dharmendra Ahluwalia, Damien J. Ferraro, Yan Wang, Don Jung, Mark D. Matteucci, and Charles P. Hart. Comparison of hypoxia-activated prodrug evofosfamide (TH-302) and ifosfamide in preclinical non-small cell lung cancer models [J]. Cancer Biology & Therapy, 2016, 17(4): 371-380).

[3] = 25° C. ± 2° C./60% ± 5% RH, 1 month
[4] = 25° C. ± 2° C./60% ± 5% RH, 3 months
[5] = 40° C. ± 2° C./75% ± 5% RH, 1 month
[6] = 60 mg/kg i.p. 5 days on, 2 days off, 2 weeks, Day 38

SMILES: O=[N+]([O-])c1ccc(C(OP(=O)(N2CC2)N2CC2)C(F)(F)F)cc1Oc1ccc(-c2ccc(F)cc2)c(F)c1 (single isomer, unassigned) [A-P2]
- Isomer peak A-P1 ([1]; 0 month): 0.25%
- Isomer peak A-P2 ([1]; 0 month): 99.75%
- Isomer peak A-P1 ([1]; 5° C. ± 3° C., 1 month): 0.25%
- Isomer peak A-P2 ([1]; 5° C. ± 3° C., 1 month): 99.75%
- Isomer transformation ([1]; 5° C. ± 3° C., 1 month): 0.00%
- Isomer peak A-P1 ([1]; 5° C. ± 3° C., 3 months): 0.25%
- Isomer peak A-P2 ([1]; 5° C. ± 3° C., 3 months): 99.75%
- Isomer transformation ([1]; 5° C. ± 3° C., 3 months): 0.00%
- Isomer peak A-P1 [1, 3]: 0.25%
- Isomer peak A-P2 [1, 3]: 99.75%
- Isomer transformation [1, 3]: 0.00%
- Isomer peak A-P1 [1, 4]: 0.25%
- Isomer peak A-P2 [1, 4]: 99.75%
- Isomer transformation [1, 4]: 0.00%
- Isomer peak A-P1 [1, 5]: 0.26%
- Isomer peak A-P2 [1, 5]: 99.74%
- Isomer transformation [1, 5]: 0.01%
- colour and chirality after storage ([1]; −20° C., 5° C., 25° C./60% RH 3 months, 40° C./75% RH 1 month): essentially no change
- Isomer peak A-P1 ([1]; −20 ± 5° C., 3 months): 0.26%
- Isomer peak A-P2 ([1]; −20 ± 5° C., 3 months): 99.74%
- Isomer transformation ([1]; −20 ± 5° C., 3 months): −0.01%

SMILES: CC(=O)[C@H]1CC[C@H]2[C@@H]3CCC4=CC(=O)CC[C@]4(C)[C@H]3CC[C@]12C [Progesterone]
- half-life at 5 µM (in vitro; CD-1, mouse, hepatocyte cytosol, Metabolic parameter t1/2, mouse, 2 mM NADPH, no AST-3021 (normal reaction / positive control group), 5 μM): 37.7 min
- half-life at 5 µM (in vitro; SD, rat, hepatocyte cytosol, Metabolic parameter t1/2, rat, 2 mM NADPH, no AST-3021 (normal reaction / positive control group), 5 μM): 22.3 min
- half-life at 5 µM (in vitro; cynomolgus (printed as 'machins'), monkey, cytosol): 13.2 min
- Metabolic parameter k (in vitro; human, 2 mM NADPH, no AST-3021 (normal reaction / positive control group), 5 μM): 0.0543
- average % Remaining (in vitro; human, 2 mM NADPH, no AST-3021 (normal reaction / positive control group), 5 μM, 0 min): 100.00%
- average % Remaining (in vitro; human, 2 mM NADPH, no AST-3021 (normal reaction / positive control group), 5 μM, 5 min): 80.76%
- average % Remaining (in vitro; human, 2 mM NADPH, no AST-3021 (normal reaction / positive control group), 5 μM, 15 min): 55.69%
- average % Remaining (in vitro; human, 2 mM NADPH, no AST-3021 (normal reaction / positive control group), 5 μM, 30 min): 20.59%
- average % Remaining (in vitro; human, 2 mM NADPH, no AST-3021 (normal reaction / positive control group), 5 μM, 45 min): 7.72%
- average % Remaining (in vitro; human, 2 mM NADPH, no AST-3021 (normal reaction / positive control group), 5 μM, 60 min): 0.46%
- Metabolic parameter k (in vitro; monkey, 2 mM NADPH, no AST-3021 (normal reaction / positive control group), 5 μM): 0.0525
- average % Remaining (in vitro; monkey, 2 mM NADPH, no AST-3021 (normal reaction / positive control group), 5 μM, 0 min): 100.00%
- average % Remaining (in vitro; monkey, 2 mM NADPH, no AST-3021 (normal reaction / positive control group), 5 μM, 5 min): 82.47%
- average % Remaining (in vitro; monkey, 2 mM NADPH, no AST-3021 (normal reaction / positive control group), 5 μM, 15 min): 59.82%
- average % Remaining (in vitro; monkey, 2 mM NADPH, no AST-3021 (normal reaction / positive control group), 5 μM, 30 min): 28.19%
- average % Remaining (in vitro; monkey, 2 mM NADPH, no AST-3021 (normal reaction / positive control group), 5 μM, 45 min): 10.01%
- average % Remaining (in vitro; monkey, 2 mM NADPH, no AST-3021 (normal reaction / positive control group), 5 μM, 60 min): 3.26%
- Metabolic parameter k (in vitro; mouse, 2 mM NADPH, no AST-3021 (normal reaction / positive control group), 5 μM): 0.0184
- average % Remaining (in vitro; mouse, 2 mM NADPH, no AST-3021 (normal reaction / positive control group), 5 μM, 0 min): 100.00%
- average % Remaining (in vitro; mouse, 2 mM NADPH, no AST-3021 (normal reaction / positive control group), 5 μM, 5 min): 89.61%
- average % Remaining (in vitro; mouse, 2 mM NADPH, no AST-3021 (normal reaction / positive control group), 5 μM, 15 min): 78.52%
- average % Remaining (in vitro; mouse, 2 mM NADPH, no AST-3021 (normal reaction / positive control group), 5 μM, 30 min): 62.61%
- average % Remaining (in vitro; mouse, 2 mM NADPH, no AST-3021 (normal reaction / positive control group), 5 μM, 45 min): 44.84%
- average % Remaining (in vitro; mouse, 2 mM NADPH, no AST-3021 (normal reaction / positive control group), 5 μM, 60 min): 31.03%
- Metabolic parameter k (in vitro; rat, 2 mM NADPH, no AST-3021 (normal reaction / positive control group), 5 μM): 0.0311
- average % Remaining (in vitro; rat, 2 mM NADPH, no AST-3021 (normal reaction / positive control group), 5 μM, 0 min): 100.00%
- average % Remaining (in vitro; rat, 2 mM NADPH, no AST-3021 (normal reaction / positive control group), 5 μM, 5 min): 84.80%
- average % Remaining (in vitro; rat, 2 mM NADPH, no AST-3021 (normal reaction / positive control group), 5 μM, 15 min): 69.77%
- average % Remaining (in vitro; rat, 2 mM NADPH, no AST-3021 (normal reaction / positive control group), 5 μM, 30 min): 45.51%
- average % Remaining (in vitro; rat, 2 mM NADPH, no AST-3021 (normal reaction / positive control group), 5 μM, 45 min): 21.61%
- average % Remaining (in vitro; rat, 2 mM NADPH, no AST-3021 (normal reaction / positive control group), 5 μM, 60 min): 4.70%

SMILES: O=P(O)(N1CC1)N1CC1 [AST-2660]
- metabolite AST-2660 detection (in vitro; human, no NADPH, no AST-3021): not detected
- metabolite AST-2660 detection (in vitro; human, with NADPH): a small amount
- metabolite AST-2660 detection (in vitro; human, with NADPH and AST-3021): not detected
- metabolite AST-2660 detection (in vitro; monkey, no NADPH, no AST-3021): not detected
- metabolite AST-2660 detection (in vitro; monkey, with NADPH): a small amount
- metabolite AST-2660 detection (in vitro; monkey, with NADPH and AST-3021): detected in only one monkey 60-min sample
- metabolite AST-2660 detection (in vitro; mouse, no NADPH, no AST-3021): not detected
- metabolite AST-2660 detection (in vitro; mouse, with NADPH): not detected
- metabolite AST-2660 detection (in vitro; mouse, with NADPH and AST-3021): not detected
- metabolite AST-2660 detection (in vitro; rat, no NADPH, no AST-3021): not detected
- metabolite AST-2660 detection (in vitro; rat, with NADPH): not detected
- metabolite AST-2660 detection (in vitro; rat, with NADPH and AST-3021): not detected

SMILES: O=P1(NCCCl)OCCCN1CCCl (centres unmarked) [Isocyclophosphamide, reference compound]
- Relative tumor volume (x ± S) [2, 6]: 3.85 ± 0.63
- T/C (%) [2, 6]: 41.17%
- TGI (%) [2, 6]: 58.83%
- Tumor volume (x ± S) [2, 6]: 371.02 ± 75.96
- Tumor volume ([2]; 0 day): 94.15 mm^3
- Tumor volume ([2]; 3 days): 122.22 mm^3
- Tumor volume ([2]; 7 days): 129.39 mm^3
- Tumor volume ([2]; 10 days): 175.00 mm^3
- Tumor volume ([2]; 14 days): 190.74 mm^3
- Tumor volume ([2]; 17 days): 189.23 mm^3
- Tumor volume ([2]; 21 days): 217.96 mm^3
- Tumor volume ([2]; 24 days): 225.66 mm^3
- Tumor volume ([2]; 28 days): 247.04 mm^3
- Tumor volume ([2]; 31 days): 265.76 mm^3
- Tumor volume ([2]; 35 days): 324.51 mm^3
- Tumor volume ([2]; 38 days): 371.02 mm^3
- Tumor volume ([2]; 42 days): 403.47 mm^3
- Tumor volume ([2]; 45 days): 484.83 mm^3
- Tumor volume ([2]; 49 days): 578.60 mm^3
